According to PMC6470953, “Symmetrical Modification of Minimized Dermaseptins to Extend the Spectrum of Antimicrobials with Endotoxin Neutralization Potency” (International Journal of Molecular Sciences, 2019):
Where two headings read alike, the source gives them in different places. Where no end group is shown, it is not given here.

Legend:
[1] = system: human red blood cells (hRBCs); assay: Hemolytic activity assay; format: cell-based; details: lowest peptide concentration that induces 5% hemolysis; hRBCs in PBS pH 7.4, 1 h, 37 °C, OD570
Procedure: Hemolytic activity measurements were performed to evaluate the effect of peptides on hemoglobin release levels by erythrocyte lysis. The experimental protocol was reviewed and approved by the ethics committee of the Northeast Agricultural University Hospital, and the experimental method was carried out in accordance with the approved guidelines and regulations. A total of 1 mL of fresh hRBCs was collected and diluted 10-fold with PBS (pH 7.4). A quantity of 50 μL of the hRBCs solution was incubated with 50 μL of serially diluted peptides dissolved in PBS for 1 h at 37 °C. hRBC suspension treated with 0.1% Triton X-100 was employed as a positive control and an untreated hRBC suspension was used as a negative control. A total of 50 μL of the supernatant was collected from the mixture after centrifugation (1000g, 5 min, 4 °C) and transferred to a new 96-well microplate. The percent hemolysis was calculated using the following equation: Hemolysis (%) = [(OD570 of the treated sample — OD570 of the negative control)/(OD570 of the positive control — OD570 of the negative control)] × 100%.

E. coli ATCC25922 [2] = assay: MIC assay, E. coli ATCC25922; format: cell-based; details: two-fold dilution in 96-well plates, MHB, 2-7 × 10^5 CFU/mL, 18–24 h, 37 °C, three replicates on at least two occasions
Procedure: (§1) MIC measurements were performed in 96-well plates. The peptides were dissolved in 0.2% bovine serum albumin and 0.01% acetic acid, and an appropriate broth was subjected to a series of two-fold dilutions. The final concentration of microbial suspensions was from 2 × 10^5 to 7 × 10^5 colony forming units (CFU)∙mL^−1. Key parameters were volume (50 μL bacterial suspension + 50 μL peptide solution), incubating time (18–24 h), and temperature (37 °C). Each test was performed in three replicates on at least two independent occasions. The Mueller Hilton broth (MHB) (AoBoX, Shanghai, China) without or with microbial cells was regarded as the negative control or positive control, respectively. MICs were recorded at the lowest peptide concentration without visible turbidity and spectrophotometrically by measuring the optical density (OD) at 492 nm (Tecan, Salzburg, Austria).

[3] = system: human embryonic kidney cells (HEK293T); assay: MTT cytotoxicity assay, HEK293T; format: cell-based; details: peptide 64 μM, 18–24 h, 37 °C, OD 570 nm, n = 3
Procedure: (§2) The Roswell Park Memorial Institute-1640 (RPMI-1640) (Invitrogen, Carlsbad, CA, USA) and Dulbecco’s modified Eagle’s medium-high glucose (DMEM) (Gibco, China) were supplemented with 100 μg∙mL^−1 streptomycin sulfate, 100 U∙mL^−1 penicillin, and 10% (v/v) fetal bovine serum (Hyclone, Logan, UT, USA). These were used to culture the RAW264.7 and HEK293T cells, respectively. The peptides were added to cell cultures (1.0–2.0 × 10^4 cells/well) at different final concentrations (1–64 µM) in 96-well plates for 18–24 h at 37 °C in 5% CO2, and 3-(4,5-dimethylthiazol-2-yl)-2,5-diphenyltetrazolium bromide (MTT) (50 µL, 0.5 mg∙mL^−1) was injected and incubated with cell cultures for 4 h at 37 °C. Finally, the centrifuged cells without the supernatants were mixed with 150 µL of dimethyl sulfoxide to dissolve the formazan crystals that formed. The optical density (OD) was recorded by a microplate reader (Tecan, Salzburg, Austria) at 570 nm.

[4] = system: S. typhimurium ATCC 14028; assay: MIC assay, S. typhimurium ATCC 14028; format: cell-based; details: two-fold dilution in 96-well plates, MHB, 2-7 × 10^5 CFU/mL, 18–24 h, 37 °C
Procedure: as §1

[5] = system: S. epidermidis ATCC 12228; assay: MIC assay, S. epidermidis ATCC 12228; format: cell-based; details: two-fold dilution in 96-well plates, MHB, 2-7 × 10^5 CFU/mL, 18–24 h, 37 °C
Procedure: as §1

S. aureus ATCC 29213 [6] = assay: MIC assay, S. aureus ATCC 29213; format: cell-based; details: two-fold dilution in 96-well plates, MHB, 2-7 × 10^5 CFU/mL, 18–24 h, 37 °C
Procedure: as §1

P. aeruginosa ATCC 27853 [7] = assay: MIC assay, P. aeruginosa ATCC 27853; format: cell-based; details: two-fold dilution in 96-well plates, MHB, 2-7 × 10^5 CFU/mL, 18–24 h, 37 °C
Procedure: as §1

S. faecalis ATCC 29212 [8] = assay: MIC assay, S. faecalis ATCC 29212; format: cell-based; details: two-fold dilution in 96-well plates, MHB, 2-7 × 10^5 CFU/mL, 18–24 h, 37 °C
Procedure: as §1

S. pullorum C79-13 [9] = assay: MIC assay, S. pullorum C79-13; format: cell-based; details: two-fold dilution in 96-well plates, MHB, 2-7 × 10^5 CFU/mL, 18–24 h, 37 °C
Procedure: as §1

E. coli UB1005 [10] = assay: MIC assay, E. coli UB1005; format: cell-based; details: two-fold dilution in 96-well plates, MHB, 2-7 × 10^5 CFU/mL, 18–24 h, 37 °C
Procedure: as §1

[11] = system: murine macrophage cell line (RAW264.7); assay: MTT cytotoxicity assay, RAW264.7; format: cell-based; details: RAW264.7, peptide 64 μM, 18–24 h, 37 °C, OD 570 nm, n = 3
Procedure: as §2

B. subtilis CMCC 63501 [12] = assay: MIC assay, B. subtilis CMCC 63501; format: cell-based; details: two-fold dilution in 96-well plates, MHB, 2-7 × 10^5 CFU/mL, 18–24 h, 37 °C
Procedure: as §1

interleukin-6(IL-6) = assay: LPS-induced IL-6 gene expression (qRT-PCR) in RAW264.7; format: cell-based, murine; details: RAW264.7, 100 ng/mL LPS, peptide 10 μg/mL, n = 3
Procedure: (§3) The RAW264.7 cell culture was prepared using the same method as the cytotoxicity assay. The cells were seeded in 12 wells plates at a given density (5 × 10^5 cells per well); after overnight culture, 100 ng·mL^−1 LPS from E. coli 0111:B4 was added to stimulate the generation of cytokines in the presence or absence of the peptides at concentrations of 10 μg·mL^−1. The mRNA levels of IL-6 and IL-1β were determined by quantitative real-time PCR(qRT-PCR) as previously described. The total RNA was isolated from the RAW264.7 cells using TRIzol according to the manufacturer’s instructions. Total RNA (1 µg) was reverse transcribed by the M-MLV Reverse Transcriptase (Thermo scientific, Waltham, MA, USA). The reactions were incubated in chronological arrangement with the following parameters: at 25 °C for 20 min, at 42 °C for 60 min, and at 70 °C for 10 min. The obtained cDNA samples were determined by qRT-PCR with SYBR green I fluorescence dye (Takara Bio Inc., Kusatsu, Japan). Relative quantifications of the mRNA expression of the target genes were calculated through the comparative threshold cycle number for each sample (2^−ΔΔCT). Gene expression was normalized to the corresponding β-actin level. The primers for qRT-PCR in this study are shown below: IL-6-F: […]; IL-6-R: […]; IL-1β-F: […]; and IL-1β-R: […].

[13] = LPS binding, BODIPY-TR cadaverine displacement assay; set-up: species or system E. coli; details: LPS 100 ng/mL, peptide 1.25–40 μg/mL, 1 h, 37 °C, Tris pH 7.4
Procedure: BODIPY-TR-cadaverine fluorescent dye (BC, Sigma, USA) was used to determine the LPS neutralizing activity of the peptides. A total of 100 ng/mL LPS from E. coli O111:B4 was incubated with 5 μg/mL BC in Tris buffer (50 mM, pH 7.4) for 4 h at room temperature. The peptides were serially diluted to different concentrations (1.25–40 μg/mL) in a 96-well plate and incubated with an equal volume of the LPS-probe mixture for 1 h at 37 °C. The fluorescence was recorded (excitation λ = 580 nm, emission λ = 620 nm) with a spectrofluorophotometer (the Infinite 200 pro, Tecan, China). The values were converted to %ΔF (AU) using the following equation:%ΔF (AU) = (Fobs − F0) / (F100 − F0) × 100 where F0 is the initial fluorescence of BC with LPS; F100 is the BC fluorescence with LPS cells upon the addition of 10 μg∙mL^−1 polymyxin B (the positive control); and Fobs is the observed fluorescence at a given peptide concentration.

[14] = system: Gram-negative and Gram-positive bacteria; assay: Geometric mean of MIC values over the bacteria tested; format: cell-based; details: MIC >128 μM counted as 256 μM
Procedure: as §1

interleukin-1β(IL-1β) = assay: LPS-induced IL-1β gene expression (qRT-PCR) in RAW264.7; format: cell-based, murine; details: RAW264.7, 100 ng/mL LPS, peptide 10 μg/mL, n = 3
Procedure: as §3

E. coli ATCC 25922 = assay: FACScan membrane integrity analysis (propidium iodide); format: cell-based; details: E. coli ATCC 25922, 10 μg/mL PI, 4 °C, 30 min, flow cytometry
Procedure: The membrane integrity measurements were performed with a FACScan instrument (Bectone-Dickinson, San Jose, CA, USA) by using a modified method as described previously. […] As a control, bacteria were exposed to PBS without the peptide. The gate (P1) was defined based on the FSC and SSC properties of E. coli. The FSC threshold was appropriately raised to include the large cell events in the sample and excluded the debris population. Data acquisition was performed using […] Software (Becton Dickinson, San Jose, CA, USA) with a stopping gate of 10,000 total events. Observations were repeated three times at a laser excitation wavelength of 488 nm. Based on the ability of flow cytometers to provide accurate quantification of cell numbers, the counts of PI-positive cells were measured for each peptide.

P. aeruginosa ATCC 27853 [15] = details: cited from earlier work
Text: (§4) Table 2 MICs and therapeutic index of the peptides. | column: KL4A6 [9]

[16] = system: Gram-negative and Gram-positive bacteria; details: MIC >128 μM counted as 256 μM; cited from earlier work
Text: as §4

S. faecalis ATCC 29212 [17] = details: cited from earlier work
Text: as §4

[18] = system: human red blood cells (hRBCs); details: lowest peptide concentration that induces 5% hemolysis; cited from earlier work
Text: as §4

E. coli ATCC25922 [19] = details: cited from earlier work
Text: as §4

[20] = system: S. epidermidis ATCC 12228; details: cited from earlier work
Text: as §4

S. pullorum C79-13 [21] = details: cited from earlier work
Text: as §4

[22] = system: S. typhimurium ATCC 14028; details: cited from earlier work
Text: as §4

B. subtilis CMCC 63501 [23] = details: cited from earlier work
Text: as §4

S. aureus ATCC 29213 [24] = details: cited from earlier work
Text: as §4

E. coli UB1005 [25] = details: cited from earlier work
Text: as §4

Compound | MHC5 (minimum hemolysis concentration 5%) [1] [µM] | MIC (E. coli ATCC25922 [2]) [µM] | cell survival rate [3] [%] | MIC [4] [µM] | MIC [5] [µM] | MIC (S. aureus ATCC 29213 [6]) [µM] | MIC (P. aeruginosa ATCC 27853 [7]) [µM] | MIC (S. faecalis ATCC 29212 [8]) [µM] | MIC (S. pullorum C79-13 [9]) [µM] | MIC (E. coli UB1005 [10]) [µM] | cell survival rate [11] [%] | MIC (B. subtilis CMCC 63501 [12]) [µM] | also measured
WFKAAAKAAAKFW-NH2 [WF] | 256 | 4 | 91 | 32 | 16 | 8 | 16 | 32 | 8 | 4 | 92 | 8 | 
CC[C@H](C)[C@H](NC(=O)CN)C(=O)NCC(=O)N[C@@H](C)C(=O)N[C@H](C(=O)N[C@@H](CC(C)C)C(=O)N[C@@H](CCCCN)C(=O)N[C@H](C(=O)N[C@@H](CC(C)C)C(=O)N[C@H](C(=O)N[C@H](C(=O)NCC(=O)N[C@@H](CC(C)C)C(=O)N1CCC[C@H]1C(=O)N[C@@H](C)C(=O)N[C@@H](CC(C)C)C(=O)N[C@H](C(=O)N[C@@H](CO)C(=O)N[C@@H](Cc1c[nH]c2ccccc12)C(=O)N[C@H](C(=O)N[C@@H](CCCCN)C(=O)N[C@@H](CCCNC(=N)N)C(=O)N[C@@H](CCCCN)C(=O)N[C@@H](CCCNC(=N)N)C(=O)N[C@@H](CCC(N)=O)C(=O)N[C@@H](CCC(N)=O)C(N)=O)[C@@H](C)CC)[C@@H](C)CC)[C@@H](C)O)[C@@H](C)O)C(C)C)C(C)C [Melittin] |  |  |  |  |  |  |  |  |  |  |  |  | gene expression of IL-6 in LPS-treated cells (interleukin-6(IL-6)): markedly decreased; binding to LPS, %ΔF (AU) of BODIPY-TR cadaverine [13]: concentration-dependent increase; GM (geometric mean of MIC values) [14]: 1.3 µM; gene expression of IL-1β in LPS-treated cells (interleukin-1β(IL-1β)): markedly decreased; percentage of PI-positive cells (E. coli ATCC 25922; 1/2 × MIC): 50.5%; percentage of PI-positive cells (E. coli ATCC 25922; 1 × MIC): 77.5%
WVKAAAKAAAKVW-NH2 [WV] | >256 | 32 | 93 | >128 | >128 | >128 | >128 | 64 | 64 | >128 | 93 | >128 | 
LLKAAAKAAAKLL-NH2 [KL4A6] |  |  |  |  |  |  |  |  |  |  |  |  | MIC (P. aeruginosa ATCC 27853 [15]): >128 µM; GM (geometric mean of MIC values) [16]: 59.3 µM; MIC (S. faecalis ATCC 29212 [17]): 16 µM; MHC5 (minimum hemolysis concentration 5%) [18]: >256 µM; MIC (E. coli ATCC25922 [19]): 2 µM; MIC [20]: 128 µM; MIC (S. pullorum C79-13 [21]): >128 µM; MIC [22]: 128 µM; MIC (B. subtilis CMCC 63501 [23]): 32 µM; MIC (S. aureus ATCC 29213 [24]): >128 µM; MIC (E. coli UB1005 [25]): 32 µM
WWKAAAKAAAKWW-NH2 [WW] | 256 | 2 | 43 | 8 | 4 | 4 | 8 | 4 | 2 | 4 | 63 | 4 | 
WIKAAAKAAAKIW-NH2 [WI] | 256 | 8 | 96 | 32 | 32 | 32 | 32 | 32 | 8 | 8 | 100 | 8 | 
